pIC50: −log10 of the molar value. Where a name gives a salt, the structure may show the parent alone.
How the values were obtained:
Format in all cases: cell-based
K562 cells = experiment: Cell growth, CellTiter-Glo Luminescent Cell Viability Assay, K562; conditions: Homo sapiens, 72 h incubation
Summary of the method: (§1)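 K562, A549 and HCT-116 cells in exponential growth exposed to inhibitors at varying concentrations for 72 h. Viability read as ATP luminescence (CellTiter-Glo, 10 min at RT after lysis); IC50 from dose-response, reported as ranges.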

A549 cells = experiment: Cell growth, CellTiter-Glo Luminescent Cell Viability Assay, A549; conditions: Homo sapiens, 72 h incubation
Summary of the method: as §1

HCT-116 cells = experiment: Cell growth, CellTiter-Glo Luminescent Cell Viability Assay, HCT-116; conditions: Homo sapiens, 72 h incubation, read-out: IC50 HCT116
Summary of the method: as §1

Structure (SMILES) | pIC50 (K562 cells) | pIC50 (A549 cells) | pIC50 (HCT-116 cells)
O=C(/C=C/c1cccc(/C=C/C(=O)N2CCN(c3ccc(C(F)(F)F)cc3)CC2)c1)NO [Example 91, (E)-N-Hydroxy-3-(3-{(E)-3-oxo-3-[4-(4-trifluoromethyl-phenyl)-piperazin-1-yl]-propenyl}-phenyl)-acrylamide hydrochloride] | 5.52 to 6.00 | 5.52 to 6.00 | 5.52 to 6.00
O=C(/C=C/c1cccc(/C=C/C(=O)N2CCCC(c3ccccc3F)C2)n1)NO (stereo not drawn) [Example 92, (E)-3-(6-{(E)-3-[3-(2-Fluoro-phenyl)-piperidin-1-yl]-3-oxo-propenyl}-pyridin-2-yl)-N-hydroxy-acrylamide hydrochloride] | ≥ 6.00 | ≥ 6.00 | ≥ 6.00
O=C(/C=C/c1cccc(/C=C/C(=O)N2CCCC(c3cccc(F)c3)C2)n1)NO (stereo not drawn) [Example 93, (E)-3-(6-{(E)-3-[3-(3-Fluoro-phenyl)-piperidin-1-yl]-3-oxo-propenyl}-pyridin-2-yl)-N-hydroxy-acrylamide hydrochloride] | ≥ 6.00 | ≥ 6.00 | ≥ 6.00
O=C(/C=C/c1cccc(/C=C/C(=O)N2CCCC(c3nc(-c4ccc(F)cc4)no3)C2)n1)NO (stereo not drawn) [Example 94, (E)-3-[6-((E)-3-{3-[3-(4-Fluoro-phenyl)-[1,2,4]oxadiazol-5-yl]-piperidin-1-yl}-3-oxo-propenyl)-pyridin-2-yl]-N-hydroxy-acrylamide hydrochloride] | ≥ 6.00 | 5.52 to 6.00 | ≥ 6.00
O=C(/C=C/c1cccc(/C=C/C(=O)N2CCC=C(c3ccccc3)C2)n1)NO [Example 95, (E)-N-Hydroxy-3-{6-[(E)-3-oxo-3-(5-phenyl-3,6-dihydro-2H-pyridin-1-yl)-propenyl]-pyridin-2-yl}-acrylamide hydrochloride] | ≥ 6.00 | ≥ 6.00 | ≥ 6.00
O=C(/C=C/c1cccc(/C=C/C(=O)N2CCc3cc(-c4ccccc4)ccc3C2)n1)NO [Example 96, (E)-N-Hydroxy-3-{6-[(E)-3-oxo-3-(6-phenyl-3,4-dihydro-1H-isoquinolin-2-yl)-propenyl]-pyridin-2-yl}-acrylamide hydrochloride] | 5.52 to 6.00 | ≤ 5.52 | 5.52 to 6.00
O=C(/C=C/c1cccc(/C=C/C(=O)N2CCc3nc(-c4ccccc4)sc3C2)n1)NO [Example 97, (E)-N-Hydroxy-3-{6-[(E)-3-oxo-3-(2-phenyl-6,7-dihydro-4H-thiazolo[5,4-c]pyridin-5-yl)-propenyl]-pyridin-2-yl}-acrylamide hydrochloride] | ≥ 6.00 | 5.52 to 6.00 | ≥ 6.00
O=C(/C=C/c1cccc(/C=C/C(=O)N2CCCc3nc(-c4ccccc4)sc32)n1)NO [Example 98, (E)-N-Hydroxy-3-{6-[(E)-3-oxo-3-(2-phenyl-6,7-dihydro-5H-thiazolo[5,4-b]pyridin-4-A-propenyl]-pyridin-2-yl}-acrylamide trifluoroacetate] | 5.52 to 6.00 | 5.52 to 6.00 | ≥ 6.00

— patent publication US20110105474A1, “HETEROCYCLIC DERIVATIVES AS HDAC INHIBITORS” (DAC S.r.l., priority 2008, published 2011)
